Patent US20100310514A1, “Anti-Inflammatory Bacteria” (priority 2009, published 2010)
Residues, ends and D or L forms follow the SMILES beside them. *: point of attachment. Cbz = O=C(OCc1ccccc1)*

Legend:
[1] = test system: TMK1 cells
[2] = test system: AGS and TMK1 cells; details: all LL-37 treatment groups
Protocol: Cell culture and viability assay—The human gastric adenocarcinoma cell line AGS was purchased from American Type Culture Collection (Manassas, Va., USA). The gastric adenocarcinoma cell TMK1 was obtained from Dr. Eiichi Tahara (University of Hiroshima, Hiroshima, Japan). AGS and TMK1 cells were maintained in RPMI 1640 (Invitrogen) containing 10% fetal bovine serum (Invitrogen), 100 U/mL penicillin G, 100 μg/mL streptomycin, and maintained at 37° C., 95% humidity, and 5% carbon dioxide. Cell viability was determined by lactate dehydrogenase release assay (Roche, Indianapolis, Ind., USA).

[3] = test system: AGS cells; details: LL-37 20 μg/ml, 24 h
[4] = test system: Smad1/5, Smad2/3, cyclin E2; assay: Western blot of Smad/BMP signaling proteins in TMK1 cells; type: cell-based, human; details: MG-132, 4 h (1 μmol/L in FIG. 6)
[5] = test system: Smad6, Smad7, p21Waf1/Cip1, p15Ink4a, p27Kip1, BMP ligands; assay: RT-PCR / real-time PCR mRNA expression in TMK1 cells; type: cell-based, human; details: MG-132, 4 h (1 μmol/L in FIG. 6)
[6] = test system: dextran sodium sulfate-induced ulcerative colitis; assay: DSS-induced ulcerative colitis, oral bacteria given during 7 days of DSS; type: in vivo, Balb/c mice; details: 600 mg/kg orally once daily
Protocol: Male Balb/c mice 6-8 weeks old were used in the following experiments. They were allowed free access to standard laboratory chow and tap water. All animals were housed in an air-conditioned room with controlled temperature (22° C.±1° C.), humidity (65%-70%), and day/night cycle (12:12-hr light: dark). Mice were induced with acute colitis by giving 3% dextran sulfate sodium (DSS, molecular weight, 35-50 kDa) prepared in drinking water for 7 days (from Day 0 to Day 7). Normal control mice received tap water throughout the experiment. […] In a different group of transformed NZ3900, 0.25 ng/ml nisin was added and further incubated for 3 h. Bacteria were then harvested by centrifugation (5000 rpm, 15 min) and washed twice with sterilized PBS (pH 7.4) and resuspended in sterilized water to give 2×10^10 cfu/ml. Mice were given intragastrically (i.g.) with 0.5 ml (1×10^10 cfu) bacteria once daily at the beginning of the DSS feeding. Animals were sacrificed at the end of 7 days DSS drinking and bacteria feeding. Colonic myeloperoxidase (MPO) was measured as described previously (Guo X, et al. Gastroenterology 117, 884-892 (1999)). In brief, colon tissues were homogenized in an ice-cold […] PBS (pH 6.0) solution with 0.5% hexa-decyl-trimethyl-ammonium bromide. The homogenate was freeze-thawed three times, followed by repeated sonication for 60 seconds each and centrifugation for 20 minutes at 14,000 revolutions per minutes at 4° C. The activity of the supernatant was determined spectrophotometrically at 450 nm. The final value was expressed as enzyme units per mg of protein. Crypt loss is a histological finding in colitis. Therefore, histological analysis of mice administered with formulations per FIG. 16. The crypts were graded on a 4 grade scale as follows: Grade 0: intact crypt; Grade 1: loss of the basal ⅓ of the crypt; Grade 2: loss of the basal ⅔ of the crypt; Grade 3: loss of entire crypt with surface epithelium remaining intact; Grade 4: loss of both the entire crypt and surface epithelium.

C=C1/C(=C\C=C2/CCC[C@]3(C)[C@@H]([C@H](C)CCCC(C)(C)O)CC[C@@H]23)C[C@@H](O)C[C@@H]1O [1α,25-dihydroxylvitamin D3]
TMK1 cell proliferation on induction of endogenous LL-37 ([1]; 1 μmol/L VD3 for 24 h, read 48 h post-treatment): inhibited cell proliferation

CC[C@H](C)[C@H](NC(=O)[C@H](CCCCN)NC(=O)[C@H](CCC(=O)O)NC(=O)[C@H](CCCCN)NC(=O)[C@H](CO)NC(=O)[C@H](CCCCN)NC(=O)[C@H](CCCNC(=N)N)NC(=O)[C@H](Cc1ccccc1)NC(=O)[C@H](Cc1ccccc1)NC(=O)[C@H](CC(=O)O)NC(=O)CNC(=O)[C@H](CC(C)C)NC(=O)[C@@H](N)CC(C)C)C(=O)NCC(=O)N[C@@H](CCCCN)C(=O)N[C@@H](CCC(=O)O)C(=O)N[C@@H](Cc1ccccc1)C(=O)N[C@@H](CCCCN)C(=O)N[C@@H](CCCNC(=N)N)C(=O)N[C@H](C(=O)N[C@H](C(=O)N[C@@H](CCC(N)=O)C(=O)N[C@@H](CCCNC(=N)N)C(=O)N[C@H](C(=O)N[C@@H](CCCCN)C(=O)N[C@@H](CC(=O)O)C(=O)N[C@@H](Cc1ccccc1)C(=O)N[C@@H](CC(C)C)C(=O)N[C@@H](CCCNC(=N)N)C(=O)N[C@@H](CC(N)=O)C(=O)N[C@@H](CC(C)C)C(=O)N[C@H](C(=O)N1CCC[C@H]1C(=O)N[C@@H](CCCNC(=N)N)C(=O)N[C@H](C(=O)N[C@@H](CCC(=O)O)C(=O)N[C@@H](CO)C(=O)O)[C@@H](C)O)C(C)C)[C@@H](C)CC)C(C)C)[C@@H](C)CC [LL-37]
cell viability (lactate dehydrogenase release) [2]: unaffected
inhibition of TMK1 cell proliferation ([3H]thymidine incorporation) ([1]; LL-37 20 μg/ml, 24 h): about 60%
inhibition of AGS cell proliferation ([3H]thymidine incorporation) [3]: 10%

CC(C)C[C@@H](C=O)NC(=O)[C@H](CC(C)C)NC(=O)[C@H](CC(C)C)NC(=O)OCc1ccccc1 [MG-132] (Cbz-Leu-Leu-Leu-aldehyde)
Smad1/5 phosphorylation [4]: dose-dependently increased
BMP4 mRNA expression [5]: dose-dependently increased

O=C(O)c1cc(/N=N/c2ccc(S(=O)(=O)Nc3ccccn3)cc2)ccc1O [Sulfasalazine, sulfasalazine]
MPO activity [6]: did not affect
mucus level [6]: did not affect
number of apoptotic cells in the colonic mucosa [6]: did not affect
number of microorganisms in the colon [6]: did not affect
